One data set has as its system CYP1A2. Put plainly: CYP induction in cryopreserved human hepatocytes. The conditions noted are these: positive control, 50 µM, 48 h, n = 3 donors.
For another data set, the system named is CYP2B6. Put plainly: CYP induction in cryopreserved human hepatocytes. The conditions noted are these: positive control, 1000 µM, 48 h, n = 3 donors.
A further data set addresses T1, BCRP (Homo sapiens, UniProt Q9UNQ0).
T1 sequence (Q9UNQ0 1-655): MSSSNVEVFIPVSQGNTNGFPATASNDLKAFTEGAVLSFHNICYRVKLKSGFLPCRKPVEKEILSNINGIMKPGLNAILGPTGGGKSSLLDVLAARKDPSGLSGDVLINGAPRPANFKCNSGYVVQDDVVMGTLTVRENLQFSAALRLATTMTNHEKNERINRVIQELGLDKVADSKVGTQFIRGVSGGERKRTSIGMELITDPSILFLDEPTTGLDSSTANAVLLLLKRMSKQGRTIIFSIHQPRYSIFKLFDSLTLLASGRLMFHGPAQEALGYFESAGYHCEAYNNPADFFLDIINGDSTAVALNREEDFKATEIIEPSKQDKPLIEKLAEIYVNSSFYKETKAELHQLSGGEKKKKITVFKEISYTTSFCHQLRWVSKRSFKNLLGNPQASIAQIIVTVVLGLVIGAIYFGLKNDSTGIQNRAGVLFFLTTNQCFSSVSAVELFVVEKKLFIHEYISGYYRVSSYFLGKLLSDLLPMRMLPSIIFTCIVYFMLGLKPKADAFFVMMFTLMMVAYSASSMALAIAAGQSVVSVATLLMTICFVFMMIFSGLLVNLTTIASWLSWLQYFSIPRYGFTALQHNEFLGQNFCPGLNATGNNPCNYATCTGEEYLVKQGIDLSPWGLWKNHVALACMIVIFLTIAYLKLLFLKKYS
Description: Bidirectional transport across MDCKII and MDCKII-BCRP cell monolayers. The data set is classed as in vitro ADME. More on the design: expressed in transfected cells; host or cells: MDCKII. The conditions noted are these: positive control substrate 1 µM, mean ± SEM.

Each structure is given as a SMILES string.

Take `COc1ccc2[nH]c([S+]([O-])Cc3ncc(C)c(OC)c3C)nc2c1` (stereo not shown) [Omeprazole, reference compound]: the “mRNA Mean Fold Change ± SD CYP1A2” value in the data set with CYP1A2 is 26.4 ± 8.6.
Regarding `CCC1(c2ccccc2)C(=O)NC(=O)NC1=O` [Phenobarbitol, reference compound], the “mRNA Mean Fold Change ± SD CYP2B6” value in the data set on CYP2B6 was found to be 18.5 ± 1.9.
Turning to `COc1cc2nc(N3CCN(C(=O)c4ccco4)CC3)nc(N)c2cc1OC` [prazosin, reference compound], the efflux ratio on BCRP (dog, MDCK, untransfected control cells) came out at 1 ± 0.09; on BCRP (human, BCRP-transfected monolayers) it was 14.9 ± 4.9.

For the origin of these results see PMC8402619 (Viruses, 2021).
